Like-named read-outs stand apart in the source and are kept apart here.
System: AsPC-1 cells
Assay: phospho-ERK HTRF assay in AsPC-1 cells, 4 h treatment
Type: cell-based
Details: Homo sapiens, ASPC1
[1] = AsPC-1, 4h, Table 1b, read-out: PERK IC50 (AsPC-1, 4h)
[2] = AsPC-1, 4H, Table 1a class column, read-out: pERK IC50 activity range (*)
[3] = AsPC-1, 4H, Table 1a, read-out: PERK IC50 (AsPC-1, 4H)

| SMILES | IC50 [1] [nM] | IC50 [2] [nM] | IC50 [3] [nM] |
| --- | --- | --- | --- |
| CC#Cc1cc(N)cc([C@@H]2Cc3nc(OC[C@@]45CCCN4C/C(=C\F)C5)nc(N4CCCn5nc(C(=O)N6CCCC6)cc5C4)c3CO2)c1C(F)(F)F [compound 420] | < 10 |  |  |
| CN(C)C(=O)c1nn2c(c1Cl)CN(c1nc(OC[C@@]34CCCN3C[C@H](F)C4)nc3c1COC(c1cc(N)ccc1C(F)(F)F)C3)CCC2 (stereo in doubt) [230a, 5-((S)-7-(5-amino-2-(trifluoromethyl)phenyl)-2-(((2R,7aS)-2-fluorotetrahydro-1H-pyrrolizin-7a(5H)-yl)methoxy)-7,8-dihydro-5H-pyrano[4,3-d]pyrimidin-4-yl)-3-chloro-N,N-dimethyl-5,6,7,8-tetrahydro-4H-pyrazolo[1,5-a][1,4]diazepine-2-carboxamide] |  | > 500 | > 10000 |
| CN(C)C(=O)c1nn2c(c1Br)CN(c1nc(OC[C@@]34CCCN3C[C@H](F)C4)nc3c1CO[C@H](c1c(C(F)(F)F)ccc(N)c1F)C3)CCC2 [compound 224] |  | 10 to 30 | 22 |
| CC#Cc1cc(N)cc([C@@H]2Cc3nc(OC[C@@]45CCCN4C/C(=C\F)C5)nc(N4CCCn5nc(C(=O)N(C)CC)cc5C4)c3CO2)c1C(F)(F)F [compound 428] | < 10 |  |  |
| CN(C)C(=O)c1nn2c(c1F)CN(c1nc(OC[C@@]34CCCN3C/C(=C\F)C4)nc3c1CO[C@H](c1cc(N)cc(Cl)c1C(F)(F)F)C3)CCC2 [compound 412] | < 10 |  |  |
| CCc1c(C(=O)N(C)C)nn2c1CN(c1nc(OC[C@@]34CCCN3C/C(=C\F)C4)nc3c1CO[C@H](c1cc(N)cc(Cl)c1C(F)(F)F)C3)CCC2 [compound 425] | < 10 |  |  |
| CN(C)C(=O)c1nn2c(c1Cl)CN(c1nc(OC[C@@]34CCCN3C[C@H](F)C4)nc3c1COC(c1cc(N)cc(Cl)c1C(F)(F)F)C3)CCC2 (stereo partly drawn) [compound 236] | < 10 |  |  |
| CN(C)C(=O)c1nn2c(c1Cl)CN(c1nc(OC[C@@]34CCCN3C/C(=C\F)C4)nc3c1CO[C@H](c1c(F)c(N)cc(Cl)c1Cl)C3)CCC2 [compound 436] | < 10 |  |  |
| Nc1ccc(C(F)(F)F)c([C@@H]2Cc3nc(OC[C@@]45CCCN4C[C@H](F)C5)nc(N4CCCS(=O)(=O)CC4)c3CO2)c1F [compound 204] |  | > 500 | > 10000 |
| CON(C)C(=O)c1nn2c(c1Cl)CN(c1nc(OC[C@@]34CCCN3C/C(=C\F)C4)nc3c1COC(c1cc(N)cc(Cl)c1C(F)(F)F)C3)CCC2 (stereo partly drawn) [compound 449] | < 10 |  |  |
| CN(C)C(=O)c1nn2c(c1Cl)CN(c1nc(OC[C@@]34CCCN3C[C@H](F)C4)nc3c1CO[C@H](c1cc(N)cc(Cl)c1C(F)(F)F)C3)CCC2 [compound 234, 5-((S)-7-(5-amino-3-chloro-2-(trifluoromethyl)phenyl)-2-(((2R,7aS)-2-fluorotetrahydro-1H-pyrrolizin-7a(5H)-yl)methoxy)-7,8-dihydro-5H-pyrano[4,3-d]pyrimidin-4-yl)-3-chloro-N,N-dimethyl-5,6,7,8-tetrahydro-4H-pyrazolo[1,5-a][1,4]diazepine-2-carboxamide] | < 10 |  |  |
| COCCN(C)C(=O)c1nn2c(c1Cl)CN(c1nc(OC[C@@]34CCCN3C[C@H](F)C4)nc3c1COC(c1c(C(F)(F)F)ccc(N)c1F)C3)CCC2 (stereo partly drawn) [compound 225] |  | 31 to 100 | 82 |
| Cn1cc2c(n1)CCCN(c1nc(OC[C@@]34CCCN3C[C@H](F)C4)nc3c1COC(c1c(C(F)(F)F)ccc(N)c1F)C3)C2 (stereo partly drawn) [compound 229] |  | > 500 | > 10000 |
| CC#Cc1cc(N)c(F)c([C@@H]2Cc3nc(OC[C@@]45CCCN4C[C@H](F)C5)nc(N4CCCn5nc(C(=O)N(C)C)c(C)c5C4)c3CO2)c1C(F)(F)F [compound 444] | < 10 |  |  |
| Cc1c(C(=O)N2CCCC2)nn2c1CN(c1nc(OC[C@@]34CCCN3C/C(=C\F)C4)nc3c1CO[C@H](c1cc(N)cc(Cl)c1C(F)(F)F)C3)CCC2 [compound 421] | < 10 |  |  |
| CS(=O)(=O)c1nn2c(c1Cl)CN(c1nc(OC[C@@]34CCCN3C[C@H](F)C4)nc3c1CO[C@@H](c1c(C(F)(F)F)ccc(N)c1F)C3)CCC2 [211b] |  | > 500 | > 10000 |
| CN(C)C(=O)c1nn2c(c1Cl)CN(c1nc(OC[C@@]34CCCN3CC(=C(F)F)C4)nc3c1CO[C@@H](c1c(C(F)(F)F)ccc(N)c1F)C3)CCC2 [231b, 5-((R)-7-(3-amino-2-fluoro-6-(trifluoromethyl)phenyl)-2-(((S)-2-(difluoromethylene)tetrahydro-1H-pyrrolizin-7a(5H)-yl)methoxy)-7,8-dihydro-5H-pyrano[4,3-d]pyrimidin-4-yl)-3-chloro-N,N-dimethyl-5,6,7,8-tetrahydro-4H-pyrazolo[1,5-a][1,4]diazepine-2-carboxamide] |  | > 500 | > 10000 |

| SMILES | IC50 [1] [nM] | IC50 [2] [nM] | IC50 [3] [nM] |
| --- | --- | --- | --- |
| CCN(C)C(=O)c1cc2n(n1)CCCN(c1nc(OC[C@@]34CCCN3C/C(=C\F)C4)nc3c1CO[C@H](c1cc(N)cc(C)c1C(F)(F)F)C3)C2 [compound 413] | < 10 |  |  |
| Cc1c(C(=O)N(C)C)nn2c1CN(c1nc(OC[C@@]34CCCN3C[C@H](F)C4)nc3c1CO[C@H](c1c(F)c(N)cc(Cl)c1C(F)(F)F)C3)CCC2 [compound 441] | < 10 |  |  |
| CON(C)C(=O)c1nn2c(c1Cl)CN(c1nc(OC[C@]34CCCN3C[C@@H](C=C(F)F)C4)nc3c1COC(c1cc(N)cc(Cl)c1C(F)(F)F)C3)CCC2 (stereo partly drawn) [compound 451] |  | 10 to 30 |  |
| CN1CCOc2c(nn3c2CN(c2nc(OC[C@@]45CCCN4C[C@H](F)C5)nc4c2CO[C@H](c2c(C(F)(F)F)ccc(N)c2F)C4)CCC3)C1=O [212a, 11-((S)-7-(3-amino-2-fluoro-6-(trifluoromethyl)phenyl)-2-(((2R,7aS)-2-fluorotetrahydro-1H-pyrrolizin-7a(5H)-yl)methoxy)-7,8-dihydro-5H-pyrano[4,3-d]pyrimidin-4-yl)-4-methyl-3,4,9,10,11,12-hexahydro-8H-[1,4]diazepino[1′,2′:1,5]pyrazolo[3,4-f][1,4]oxazepin-5(2H)-one] |  | > 500 | 810 |
| CN(C)C(=O)c1cc2n(n1)CCCN(c1nc(OC[C@@]34CCCN3C/C(=C\F)C4)nc3c1CO[C@H](c1cc(N)cc(Cl)c1C(F)(F)F)C3)C2 [compound 301, 5-((S)-7-(5-amino-3-chloro-2-(trifluoromethyl)phenyl)-2-(((S,Z)-2-(fluoromethylene)tetrahydro-1H-pyrrolizin-7a(5H)-yl)methoxy)-7,8-dihydro-5H-pyrano[4,3-d]pyrimidin-4-yl)-N,N-dimethyl-5,6,7,8-tetrahydro-4H-pyrazolo[1,5-a][1,4]diazepine-2-carboxamide] | < 10 |  |  |
| Cc1cc(N)cc([C@@H]2Cc3nc(OC[C@@]45CCCN4C/C(=C\F)C5)nc(N4CCCn5nc(C(=O)N6CCCC6)cc5C4)c3CO2)c1C(F)(F)F [compound 404] |  | 10 to 30 |  |
| CN(C)C(=O)c1cc2n(n1)CCCN(c1nc(OC[C@@]34CCCN3CC(=C(F)F)C4)nc3c1CO[C@H](c1cc(N)cc(Cl)c1C(F)(F)F)C3)C2 [compound 411] | < 10 |  |  |
| CN1CCN(c2nc(OC[C@@]34CCCN3C[C@H](F)C4)nc3c2COC(c2c(C(F)(F)F)ccc(N)c2F)C3)CCC1=O (stereo partly drawn) [compound 201] |  | > 500 | > 10000 |
| Nc1ccc(C(F)(F)F)c(C2Cc3nc(OC[C@@]45CCCN4C[C@H](F)C5)nc(N4CCNCC(=O)C4)c3CO2)c1F (stereo partly drawn) [compound 203] |  | > 500 | > 10000 |
| CN(C)C(=O)c1nc2c(s1)CCCN(c1nc(OC[C@@]34CCCN3C[C@H](F)C4)nc3c1CO[C@H](c1c(C(F)(F)F)ccc(N)c1F)C3)C2 [compound 202] |  | > 500 | > 10000 |
| CN(C)C(=O)c1nn2c(c1Cl)CN(c1nc(OC[C@@]34CCCN3CC(=C(F)F)C4)nc3c1CO[C@H](c1cc(N)ccc1C(F)(F)F)C3)CCC2 [compound 244] |  | 10 to 30 | 22.2 |
| CN(C)C(=O)c1nn2c(c1Cl)CN(c1nc(OC[C@@]34CCCN3C[C@H](F)C4)nc3c1CO[C@H](c1c(F)c(N)cc(Cl)c1C(F)(F)F)C3)CCC2 [213a, 5-((S)-7-(3-amino-5-chloro-2-fluoro-6-(trifluoromethyl)phenyl)-2-(((2R,7aS)-2-fluorotetrahydro-1H-pyrrolizin-7a(5H)-yl)methoxy)-7,8-dihydro-5H-pyrano[4,3-d]pyrimidin-4-yl)-3-chloro-N,N-dimethyl-5,6,7,8-tetrahydro-4H-pyrazolo[1,5-a][1,4]diazepine-2-carboxamide] | < 10 |  |  |
| CN(C)C(=O)c1nn2c(c1Cl)CN(c1nc(OC[C@@]34CCCN3C[C@H](F)C4)nc3c1COC(c1c(C(F)(F)F)ccc(Br)c1F)C3)CC1(COC1)C2 (stereo partly drawn) [compound 218] |  | > 500 | > 10000 |
| CC#Cc1cc(N)c(F)c([C@@H]2Cc3nc(OC[C@@]45CCCN4C/C(=C\F)C5)nc(N4CCCn5nc(C(=O)N(C)C)c(Cl)c5C4)c3CO2)c1C(F)(F)F [compound 437] | < 10 |  |  |
| CON(C)C(=O)c1nn2c(c1C)CN(c1nc(OC[C@@]34CCCN3C/C(=C\F)C4)nc3c1COC(c1cc(N)cc(Cl)c1C(F)(F)F)C3)CCC2 (stereo partly drawn) [compound 450, 5-(7-(5-amino-3-chloro-2-(trifluoromethyl)phenyl)-2-(((S,Z)-2-(fluoromethylene)tetrahydro-1H-pyrrolizin-7a(5H)-yl)methoxy)-7,8-dihydro-5H-pyrano[4,3-d]pyrimidin-4-yl)-N-methoxy-N,3-dimethyl-5,6,7,8-tetrahydro-4H-pyrazolo[1,5-a][1,4]diazepine-2-carboxamide] |  | 10 to 30 |  |
| CN(C)C(=O)c1nn2c(c1Cl)CN(c1nc(OC[C@@]34CCCN3CC(=C(F)F)C4)nc3c1COC(c1cc(N)cc(F)c1C(F)(F)F)C3)CCC2 (stereo partly drawn) [compound 238] |  | 10 to 30 | 29.3 |
| CN(C)C(=O)c1nn2c(c1Cl)CN(c1nc(OC[C@@]34CCCN3C/C(=C\F)C4)nc3c1CO[C@H](c1c(F)c(N)cc(Cl)c1C(F)(F)F)C3)CCC2 [247a, 5-((S)-7-(3-amino-5-chloro-2-fluoro-6-(trifluoromethyl)phenyl)-2-(((S,Z)-2-(fluoromethylene)tetrahydro-1H-pyrrolizin-7a(5H)-yl)methoxy)-7,8-dihydro-5H-pyrano[4,3-d]pyrimidin-4-yl)-3-chloro-N,N-dimethyl-5,6,7,8-tetrahydro-4H-pyrazolo[1,5-a][1,4]diazepine-2-carboxamide] | < 10 |  |  |

From US20260224589A1 (priority 2023, published 2026)
